Numbered stars: 1 amine (or outer) side, 2 acyl side, 3 side chain; on linkers, the order of the positions; unused ones are H or OH. Square brackets hold non-standard residues; d marks the D form. Peptide text beside a SMILES is read from it. * marks the point of attachment. Tyr(3,5-(NO2)2) = N[C@@H](Cc1cc([N+](=O)[O-])c(O)c([N+](=O)[O-])c1)C(=O)O; X1 = CC[C@H](C)[C@H](N)C(=O)NC(=O)[C@H](Cc1ccc([N+](=O)[O-])cc1)N*; Tyr(3-NO2) = N[C@@H](Cc1ccc(O)c([N+](=O)[O-])c1)C(=O)O; X2 = CCOP(=O)(Cc1ccc(C[C@H](N[*:1])C(=O)[*:2])cc1)OCC; Phe(4-NO2) = N[C@@H](Cc1ccc([N+](=O)[O-])cc1)C(=O)O; Phe(4-N3) = [N-]=[N+]=Nc1ccc(C[C@H](N)C(=O)O)cc1; Phe(3,4-(OMe)2) = COc1ccc(C[C@H](N)C(=O)O)cc1OC; Phe(4-COOH) = N[C@@H](Cc1ccc(C(=O)O)cc1)C(=O)O; Phe(4-tBu) = CC(C)(C)c1ccc(C[C@H](N)C(=O)O)cc1; Phe(3-CN) = N#Cc1cccc(C[C@H](N)C(=O)O)c1; Phe(3-OMe) = COc1cccc(C[C@H](N)C(=O)O)c1; Phe(4-F) = N[C@@H](Cc1ccc(F)cc1)C(=O)O; Phe(4-I) = N[C@@H](Cc1ccc(I)cc1)C(=O)O; 1Nal = N[C@@H](Cc1cccc2ccccc12)C(=O)O; Bta = N[C@@H](Cc1csc2ccccc12)C(=O)O; Oxazole4CO(2-Me) = Cc1nc(C(=O)*)co1; hTyr = N[C@@H](CCc1ccc(O)cc1)C(=O)O; hPhe = N[C@@H](CCc1ccccc1)C(=O)O; 4Pal = N[C@@H](Cc1ccncc1)C(=O)O; Cha = N[C@@H](CC1CCCCC1)C(=O)O; Nle = CCCC[C@H](N)C(=O)O; 2Furoyl = O=C(c1ccco1)*
These molecules were tested against T1, Proteinase-activated receptor 2 (Homo sapiens, UniProt P55085) (assay: Agonist activity at PAR2 expressed in human HT29 cells assessed as intracellular calcium release).
T1 sequence (P55085 whole entry): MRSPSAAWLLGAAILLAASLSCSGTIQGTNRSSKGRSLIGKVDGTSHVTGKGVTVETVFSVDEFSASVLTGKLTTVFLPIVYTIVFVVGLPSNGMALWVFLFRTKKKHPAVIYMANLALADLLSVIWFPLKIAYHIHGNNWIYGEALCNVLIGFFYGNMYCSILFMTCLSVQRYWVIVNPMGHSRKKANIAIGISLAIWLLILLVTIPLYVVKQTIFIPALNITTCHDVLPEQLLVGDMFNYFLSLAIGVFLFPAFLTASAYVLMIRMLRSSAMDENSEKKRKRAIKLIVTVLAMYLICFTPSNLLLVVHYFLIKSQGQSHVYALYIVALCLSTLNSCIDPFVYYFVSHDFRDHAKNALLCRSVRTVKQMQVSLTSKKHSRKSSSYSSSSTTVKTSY
Type: functional, cell-based, HT-29

SMILES | EC50
CC[C@H](C)[C@H](NC(=O)[C@H](Cc1ccncc1)NC(=O)[C@H](CCCNC(=N)N)NC(=O)CNC(=O)[C@@H](NC(=O)[C@H](CC(C)C)NC(=O)[C@@H](N)CO)[C@@H](C)CC)C(N)=O (H-SLIGR[4Pal]I-NH2) | 1900 nM
CC[C@H](C)[C@H](NC(=O)[C@H](CC(C)C)NC(=O)c1coc(C)n1)C(=O)NCC(=O)N[C@@H](CCCNC(=N)N)C(=O)N[C@@H](Cc1ccc(I)cc1)C(N)=O ({Oxazole4CO(2-Me)}-LIGR[Phe(4-I)]-NH2) | 320 nM
CCOP(=O)(Cc1ccc(C[C@H](NC(=O)[C@H](CCCNC(=N)N)NC(=O)CNC(=O)[C@@H](NC(=O)[C@H](CC(C)C)NC(=O)[C@@H](N)CO)[C@@H](C)CC)C(=O)N[C@H](C(N)=O)[C@@H](C)CC)cc1)OCC (H-SLIGR[X2]I-NH2) | 1300 nM
CC[C@H](C)[C@H](NC(=O)[C@H](CC(C)C)NC(=O)[C@@H](N)CO)C(=O)NCC(=O)N[C@@H](CCCNC(=N)N)C(=O)N[C@@H](CC(C)C)C(=O)N[C@@H](CCc1ccc(O)cc1)C(N)=O (H-SLIGRL[hTyr]-NH2) | 600 nM
CC[C@H](C)[C@H](NC(=O)[C@H](Cc1ccc(C(=O)O)cc1)NC(=O)[C@H](CCCNC(=N)N)NC(=O)CNC(=O)[C@@H](NC(=O)[C@H](CC(C)C)NC(=O)[C@@H](N)CO)[C@@H](C)CC)C(N)=O (H-SLIGR[Phe(4-COOH)]I-NH2) | 5000 nM
CC[C@H](C)[C@H](NC(=O)[C@H](Cc1cc([N+](=O)[O-])c(O)c([N+](=O)[O-])c1)NC(=O)[C@H](CCCNC(=N)N)NC(=O)CNC(=O)[C@@H](NC(=O)[C@H](CC(C)C)NC(=O)[C@@H](N)CO)[C@@H](C)CC)C(N)=O (H-SLIGR[Tyr(3,5-(NO2)2)]I-NH2) | 1400 nM
CC[C@H](C)[C@H](NC(=O)[C@H](CC(C)C)NC(=O)c1ccco1)C(=O)NCC(=O)N[C@@H](CCCNC(=N)N)C(=O)N[C@@H](Cc1ccc([N+](=O)[O-])cc1)C(N)=O (2Furoyl-LIGR[Phe(4-NO2)]-NH2) | 170 nM
CC[C@H](C)[C@H](NC(=O)[C@H](Cc1ccc(C(C)(C)C)cc1)NC(=O)[C@H](CCCNC(=N)N)NC(=O)CNC(=O)[C@@H](NC(=O)[C@H](CC(C)C)NC(=O)[C@@H](N)CO)[C@@H](C)CC)C(N)=O (H-SLIGR[Phe(4-tBu)]I-NH2) | 600 nM
CC[C@H](C)[C@H](NC(=O)[C@H](CC(C)C)NC(=O)[C@@H](N)CO)C(=O)NCC(=O)N[C@@H](CCCNC(=N)N)C(=O)N[C@@H](Cc1ccc([N+](=O)[O-])cc1)C(N)=O (H-SLIGR[Phe(4-NO2)]-NH2) | 600 nM
CCCC[C@H](NC(=O)[C@H](CC(C)C)NC(=O)[C@H](CCCNC(=N)N)NC(=O)CNC(=O)[C@@H](NC(=O)[C@H](CC(C)C)NC(=O)[C@@H](N)CO)[C@@H](C)CC)C(N)=O (H-SLIGRL[Nle]-NH2) | 1200 nM
CC[C@H](C)[C@H](NC(=O)[C@H](CC(C)C)NC(=O)[C@@H](N)CO)C(=O)NCC(=O)N[C@@H](CCCNC(=N)N)C(=O)N[C@@H](CC(C)C)C(N)=O (H-SLIGRL-NH2) | 4200 nM
CC[C@H](C)[C@H](NC(=O)[C@H](CC(C)C)NC(=O)[C@@H](N)CO)C(=O)NCC(=O)N[C@@H](CCCNC(=N)N)C(=O)N[C@@H](CC(C)C)C(=O)N[C@@H](Cc1ccc(F)cc1)C(N)=O (H-SLIGRL[Phe(4-F)]-NH2) | 2000 nM
CC[C@H](C)[C@H](NC(=O)[C@H](Cc1cccc(C#N)c1)NC(=O)[C@H](CCCNC(=N)N)NC(=O)CNC(=O)[C@@H](NC(=O)[C@H](CC(C)C)NC(=O)[C@@H](N)CO)[C@@H](C)CC)C(N)=O (H-SLIGR[Phe(3-CN)]I-NH2) | 1700 nM
CC[C@H](C)[C@H](NC(=O)[C@H](Cc1ccc(O)c([N+](=O)[O-])c1)NC(=O)[C@H](CCCNC(=N)N)NC(=O)CNC(=O)[C@@H](NC(=O)[C@H](CC(C)C)NC(=O)[C@@H](N)CO)[C@@H](C)CC)C(N)=O (H-SLIGR[Tyr(3-NO2)]I-NH2) | 1400 nM
CC[C@H](C)[C@H](NC(=O)[C@H](CC(C)C)NC(=O)[C@@H](N)CO)C(=O)NCC(=O)N[C@@H](CCCNC(=N)N)C(=O)N[C@@H](CC(C)C)C(=O)N[C@@H](Cc1ccc(O)cc1)C(N)=O (H-SLIGRLY-NH2) | 1200 nM
CC[C@H](C)[C@H](NC(=O)[C@H](CC(C)C)NC(=O)[C@H](CCCN=C(N)N)NC(=O)CNC(=O)[C@@H](NC(=O)[C@H](CC(C)C)NC(=O)[C@@H](N)CO)[C@@H](C)CC)C(N)=O (H-SLIGRLI-NH2) | 700 nM
CC[C@H](C)[C@H](NC(=O)[C@H](Cc1ccc(N=[N+]=[N-])cc1)NC(=O)[C@H](CCCNC(=N)N)NC(=O)CNC(=O)[C@@H](NC(=O)[C@H](CC(C)C)NC(=O)[C@@H](N)CO)[C@@H](C)CC)C(N)=O (H-SLIGR[Phe(4-N3)]I-NH2) | 2500 nM
CC[C@H](C)[C@H](NC(=O)[C@H](COc1ccc([N+](=O)[O-])cc1)NC(=O)[C@H](CCCNC(=N)N)NC(=O)CNC(=O)[C@@H](NC(=O)[C@H](CC(C)C)NC(=O)[C@@H](N)CO)[C@@H](C)CC)C(N)=O | 2800 nM
CC[C@H](C)[C@H](NC(=O)[C@H](CC(C)C)NC(=O)[C@@H](N)CO)C(=O)NCC(=O)N[C@@H](CCCNC(=N)N)C(=O)N[C@@H](CC(C)C)C(=O)N[C@@H](Cc1cccc2ccccc12)C(N)=O (H-SLIGRL[1Nal]-NH2) | 1100 nM
CC[C@H](C)[C@H](NC(=O)[C@H](CC(C)C)NC(=O)[C@@H](N)CO)C(=O)NCC(=O)N[C@@H](CCCNC(=N)N)C(=O)N[C@@H](CC(C)C)C(=O)N[C@@H](CCc1ccccc1)C(N)=O (H-SLIGRL[hPhe]-NH2) | 1000 nM
CC[C@H](C)[C@H](NC(=O)[C@H](CCc1ccc(O)cc1)NC(=O)[C@H](CCCNC(=N)N)NC(=O)CNC(=O)[C@@H](NC(=O)[C@H](CC(C)C)NC(=O)[C@@H](N)CO)[C@@H](C)CC)C(N)=O (H-SLIGR[hTyr]I-NH2) | 3000 nM
CC[C@H](C)[C@H](NC(=O)[C@H](Cc1ccc(OC)c(OC)c1)NC(=O)[C@H](CCCNC(=N)N)NC(=O)CNC(=O)[C@@H](NC(=O)[C@H](CC(C)C)NC(=O)[C@@H](N)CO)[C@@H](C)CC)C(N)=O (H-SLIGR[Phe(3,4-(OMe)2)]I-NH2) | 1300 nM
CC[C@H](C)[C@H](NC(=O)[C@H](CCc1ccccc1)NC(=O)[C@H](CCCNC(=N)N)NC(=O)CNC(=O)[C@@H](NC(=O)[C@H](CC(C)C)NC(=O)[C@@H](N)CO)[C@@H](C)CC)C(N)=O (H-SLIGR[hPhe]I-NH2) | 1800 nM
CC[C@H](C)[C@H](NC(=O)[C@H](Cc1cccc(OC)c1)NC(=O)[C@H](CCCNC(=N)N)NC(=O)CNC(=O)[C@@H](NC(=O)[C@H](CC(C)C)NC(=O)[C@@H](N)CO)[C@@H](C)CC)C(N)=O (H-SLIGR[Phe(3-OMe)]I-NH2) | 3300 nM
CC[C@H](C)[C@H](N)C(=O)NC(=O)[C@H](Cc1ccc([N+](=O)[O-])cc1)NC(=O)[C@H](CCCNC(=N)N)NC(=O)CNC(=O)[C@@H](NC(=O)[C@H](CC(C)C)NC(=O)c1ccco1)[C@@H](C)CC (2Furoyl-LIGR-X1) | 200 nM
CC[C@H](C)[C@H](NC(=O)[C@H](CC(C)C)NC(=O)[C@@H](N)CO)C(=O)NCC(=O)N[C@@H](CCCNC(=N)N)C(=O)N[C@@H](CC(C)C)C(=O)N[C@@H](CC1CCCCC1)C(N)=O (H-SLIGRL[Cha]-NH2) | 3600 nM
CC[C@H](C)[C@H](NC(=O)[C@H](Cc1csc2ccccc12)NC(=O)[C@H](CCCNC(=N)N)NC(=O)CNC(=O)[C@@H](NC(=O)[C@H](CC(C)C)NC(=O)[C@@H](N)CO)[C@@H](C)CC)C(N)=O (H-SLIGR[Bta]I-NH2) | 300 nM
